Data published in ChEMBL document CHEMBL1799932, “Antimalarial pyrido[1,2-a]benzimidazoles” (J Med Chem, 2011).

Columns and labels:
[1] = tested on: Plasmodium berghei; assay: Antimalarial activity against GFP-transfected Plasmodium berghei strain ANKA infected in NMRI mouse assessed as increase in median survival time at 12.5 mg/kg, po administered as multiple dose for 4 days measured 24 hrs after last treatment (reference value: 6.5 days ); type: functional
[2] = tested on: Rattus norvegicus; assay: Tmax in fasted Sprague-Dawley rat assessed as 1-(2-Ethylaminoethylamino)-3-[4-(trifluoromethyl)phenyl]- pyrido[1,2-a]benzimidazole-4-carbonitrile level at 20 mg/kg, po after 48 hrs by LC-MS analysis; type: ADME, organism-based; parameters: dose 20 mg/kg, route oral; settings: in vivo
[3] = tested on: Plasmodium berghei; assay: Antimalarial activity against GFP-transfected Plasmodium berghei strain ANKA infected in NMRI mouse assessed as reduction in parasitemia at 12.5 mg/kg, po administered as multiple dose for 4 days measured 24 hrs after last treatment; type: functional; parameters: scale not given: the % may be the effect or the level left
[4] = tested on: Plasmodium berghei; assay: Antimalarial activity against GFP-transfected Plasmodium berghei strain ANKA infected in NMRI mouse assessed as reduction in parasitemia at 50 mg/kg, po administered as single dose measured on day 2 by FACS analysis; type: functional; parameters: scale not given: the % may be the effect or the level left
[5] = tested on: Plasmodium berghei; assay: Antimalarial activity against GFP-transfected Plasmodium berghei strain ANKA infected in NMRI mouse assessed as reduction in parasitemia at 6 mg/kg, po administered as single dose for 4 days measured 24 hrs after last treatment; type: functional; parameters: scale not given: the % may be the effect or the level left
[6] = tested on: Plasma; assay: Plasma protein binding in human assessed as 1-(2-Ethylaminoethylamino)-3-[4-(trifluoromethyl)phenyl]-pyrido[1,2-a]benzimidazole-4-carbonitrile at 5 mg/kg, iv after 48 hrs by LC-MS analysis; type: ADME, organism-based; parameters: dose 5 mg/kg, route intravenous; settings: in vivo
[7] = tested on: Rattus norvegicus; assay: Apparent half life in fasted Sprague-Dawley rat assessed as 1-(2-Ethylaminoethylamino)-3-[4-(trifluoromethyl)phenyl]- pyrido[1,2-a]benzimidazole-4-carbonitrile level at 5 mg/kg, iv after 48 hrs by LC-MS analysis; type: ADME, organism-based; parameters: dose 5 mg/kg, route intravenous; settings: in vivo
[8] = tested on: Plasmodium berghei; assay: Antimalarial activity against GFP-transfected Plasmodium berghei strain ANKA infected in NMRI mouse assessed as increase in median survival time at 50 mg/kg, po administered as multiple dose for 4 days measured 24 hrs after last treatment (reference value: 6.5 days ); type: functional
[9] = tested on: Plasmodium berghei; assay: Antimalarial activity against GFP-transfected Plasmodium berghei strain ANKA infected in NMRI mouse assessed as increase in mean survival time at 25 mg/kg, po administered as single dose (reference value: 5 days )
[10] = tested on: Plasma; assay: Plasma protein binding in mouse assessed as 1-(2-Ethylaminoethylamino)-3-[4-(trifluoromethyl)phenyl]-pyrido[1,2-a]benzimidazole-4-carbonitrile at 5 mg/kg, iv after 48 hrs by LC-MS analysis; type: ADME, organism-based; parameters: dose 5 mg/kg, route intravenous; settings: in vivo
[11] = tested on: Plasmodium berghei; assay: Antimalarial activity against GFP-transfected Plasmodium berghei strain ANKA infected in NMRI mouse assessed as increase in mean survival time at 50 mg/kg, po administered as single dose (reference value: 5 days )
[12] = Metabolic stability in mouse liver microsomes assessed as degradation half life after 60 mins by LC-MS analysis; type: ADME, Microsome
[13] = tested on: Plasmodium berghei; assay: Antimalarial activity against GFP-transfected Plasmodium berghei strain ANKA infected in NMRI mouse assessed as increase in median survival time at 25 mg/kg, po administered as multiple dose for 4 days measured 24 hrs after last treatment (reference value: 6.5 days ); type: functional
[14] = tested on: Rattus norvegicus; assay: AUC (0 to tlast) in fasted Sprague-Dawley rat assessed as 1-(2-Ethylaminoethylamino)-3-[4-(trifluoromethyl)phenyl]- pyrido[1,2-a]benzimidazole-4-carbonitrile level at 5 mg/kg, iv after 48 hrs by LC-MS analysis; type: ADME, organism-based, Plasma; parameters: time < 48 hr, dose 5 mg/kg, route intravenous; settings: in vivo
[15] = tested on: Rattus norvegicus; assay: Drug excretion in fasted Sprague-Dawley rat urine assessed as 1-(2-Ethylaminoethylamino)-3-[4-(trifluoromethyl)phenyl]- pyrido[1,2-a]benzimidazole-4-carbonitrile level at 5 mg/kg, iv after 48 hrs by LC-MS analysis; type: ADME, organism-based; parameters: dose 5 mg/kg, route intravenous; settings: in vivo
[16] = tested on: Rattus norvegicus; assay: Cmax in fasted Sprague-Dawley rat assessed as 1-(2-Ethylaminoethylamino)-3-[4-(trifluoromethyl)phenyl]- pyrido[1,2-a]benzimidazole-4-carbonitrile level at 20 mg/kg, po after 48 hrs by LC-MS analysis; type: ADME, organism-based; parameters: dose 20 mg/kg, route oral; settings: in vivo
[17] = tested on: Rattus norvegicus; assay: AUC (0 to tlast) in fasted Sprague-Dawley rat assessed as 1-(2-Ethylaminoethylamino)-3-[4-(trifluoromethyl)phenyl]- pyrido[1,2-a]benzimidazole-4-carbonitrile level at 20 mg/kg, po after 48 hrs by LC-MS analysis; type: ADME, organism-based, Plasma; parameters: time < 48 hr, dose 20 mg/kg, route oral; settings: in vivo
[18] = Metabolic stability in rat liver microsomes assessed as intrinsic clearance per mg protein after 60 mins by LC-MS analysis; type: ADME, Microsome
[19] = tested on: Plasmodium berghei; assay: Antimalarial activity against GFP-transfected Plasmodium berghei strain ANKA infected in NMRI mouse assessed as reduction in parasitemia at 25 mg/kg, po administered as single dose for 4 days measured 24 hrs after last treatment; type: functional; parameters: scale not given: the % may be the effect or the level left
[20] = Metabolic stability in human liver microsomes assessed as degradation half life after 60 mins by LC-MS analysis; type: ADME, Microsome
[21] = tested on: Plasmodium berghei; assay: Antimalarial activity against GFP-transfected Plasmodium berghei strain ANKA infected in NMRI mouse assessed as reduction in parasitemia at 50 mg/kg, po administered as single dose measured on day 3 by FACS analysis; type: functional; parameters: scale not given: the % may be the effect or the level left
[22] = tested on: Plasmodium berghei; assay: Antimalarial activity against GFP-transfected Plasmodium berghei strain ANKA infected in NMRI mouse assessed as reduction in parasitemia at 3 mg/kg, po administered as multiple dose for 4 days measured 24 hrs after last treatment; type: functional; parameters: scale not given: the % may be the effect or the level left
[23] = tested on: Plasmodium berghei; assay: Antimalarial activity against GFP-transfected Plasmodium berghei strain ANKA infected in NMRI mouse assessed as reduction in parasitemia at 25 mg/kg, po administered as single dose measured on day 4 by FACS analysis; type: functional; parameters: scale not given: the % may be the effect or the level left
[24] = Metabolic stability in human liver microsomes assessed as intrinsic clearance per mg protein after 60 mins by LC-MS analysis; type: ADME, Microsome
[25] = tested on: Plasmodium berghei; assay: Antimalarial activity against GFP-transfected Plasmodium berghei strain ANKA infected in NMRI mouse assessed as increase in median survival time at 3 mg/kg, po administered as single dose for 4 days measured 24 hrs after last treatment (reference value: 6.5 days ); type: functional
[26] = Metabolic stability in mouse liver microsomes assessed as intrinsic clearance per mg protein after 60 mins by LC-MS analysis; type: ADME, Microsome
[27] = tested on: Rattus norvegicus; assay: Apparent volume of distribution in fasted Sprague-Dawley rat plasma assessed as 1-(2-Ethylaminoethylamino)-3-[4-(trifluoromethyl)phenyl]- pyrido[1,2-a]benzimidazole-4-carbonitrile level at 5 mg/kg, iv after 48 hrs by LC-MS analysis; settings: in vivo
[28] = tested on: Plasmodium berghei; assay: Antimalarial activity against GFP-transfected Plasmodium berghei strain ANKA infected in NMRI mouse assessed as reduction in parasitemia at 25 mg/kg, po administered as single dose measured on day 2 by FACS analysis; type: functional; parameters: scale not given: the % may be the effect or the level left
[29] = Metabolic stability in rat liver microsomes assessed as degradation half life after 60 mins by LC-MS analysis; type: ADME, Microsome
[30] = tested on: Plasmodium berghei; assay: Antimalarial activity against GFP-transfected Plasmodium berghei strain ANKA infected in NMRI mouse assessed as reduction in parasitemia at 25 mg/kg, po administered as single dose measured on day 5 by FACS analysis; type: functional; parameters: scale not given: the % may be the effect or the level left
[31] = tested on: Rattus norvegicus; assay: Drug excretion in fasted Sprague-Dawley rat urine assessed as 1-(2-Ethylaminoethylamino)-3-[4-(trifluoromethyl)phenyl]- pyrido[1,2-a]benzimidazole-4-carbonitrile level at 20 mg/kg, po after 48 hrs by LC-MS analysis; type: ADME, organism-based; parameters: dose 20 mg/kg, route oral; settings: in vivo
[32] = tested on: Plasmodium berghei; assay: Antimalarial activity against GFP-transfected Plasmodium berghei strain ANKA infected in NMRI mouse assessed as reduction in parasitemia at 50 mg/kg, po administered as single dose measured on day 5 by FACS analysis; type: functional; parameters: scale not given: the % may be the effect or the level left
[33] = tested on: Plasmodium berghei; assay: Antimalarial activity against GFP-transfected Plasmodium berghei strain ANKA infected in NMRI mouse assessed as reduction in parasitemia at 50 mg/kg, po administered as multiple dose for 4 days measured 24 hrs after last treatment; type: functional; parameters: scale not given: the % may be the effect or the level left
[34] = tested on: Plasmodium berghei; assay: Antimalarial activity against GFP-transfected Plasmodium berghei strain ANKA infected in NMRI mouse assessed as increase in median survival time at 6 mg/kg, po administered as multiple dose for 4 days measured 24 hrs after last treatment (reference value: 6.5 days ); type: functional
[35] = tested on: Plasmodium berghei; assay: Antimalarial activity against GFP-transfected Plasmodium berghei strain ANKA infected in NMRI mouse assessed as reduction in parasitemia at 25 mg/kg, po administered as single dose measured on day 3 by FACS analysis; type: functional; parameters: scale not given: the % may be the effect or the level left
[36] = tested on: Plasmodium berghei; assay: Antimalarial activity against GFP-transfected Plasmodium berghei strain ANKA infected in NMRI mouse assessed as reduction in parasitemia at 50 mg/kg, po administered as single dose measured on day 4 by FACS analysis; type: functional; parameters: scale not given: the % may be the effect or the level left

## CCNCCNc1cc(-c2ccc(C(F)(F)F)cc2)c(C#N)c2nc3ccccc3n12.Cl.Cl
[1]
  Activity: 14 days
[2]
  Tmax: 16 h
[3]
  Activity: 80.73%
[4]
  Activity: 30.78%
[5]
  Activity: 38.35%
[6]
  PPB: 98.3%
[7]
  t1/2(app): 16.3 h
[8]
  Activity: 14 days
[9]
  MSD: 13.3 days
[10]
  PPB: 95.3%
[11]
  MSD: 12.7 days
[12]
  half-life: 5.35 h
[13]
  Activity: 14.3 days
[14]
  AUClast: 1000 µM·min
[15]
  Activity: 1.13%
[16]
  Cmax: 950 nM
[17]
  AUClast: 2076 µM·min
[18]
  microsomal CLint: 6.1 µL/min/mg
[19]
  Activity: 95.72%
[20]
  half-life: 2.28 h
[21]
  Activity: 50.24%
[22]
  Activity: 0%
[23]
  Activity: 62.25%
[24]
  microsomal CLint: 12.7 µL/min/mg
[25]
  MSD: 4 days
[26]
  microsomal CLint: 5.4 µL/min/mg
[27]
  Vz: 7.5 L/kg
[28]
  Activity: 23.51%
[29]
  half-life: 4.74 h
[30]
  Activity: 68.92%
[31]
  Activity: 0.21%
[32]
  Activity: 79.79%
[33]
  Activity: 95.56%
[34]
  Activity: 7 days
[35]
  Activity: 55.45%
[36]
  Activity: 71.22%
